For one test, the target named is T1, human androgen receptor (Homo sapiens, UniProt P10275).
T1 construct: expressed in transfected cells; host or cells: HEK293
T1 sequence (P10275 1-920): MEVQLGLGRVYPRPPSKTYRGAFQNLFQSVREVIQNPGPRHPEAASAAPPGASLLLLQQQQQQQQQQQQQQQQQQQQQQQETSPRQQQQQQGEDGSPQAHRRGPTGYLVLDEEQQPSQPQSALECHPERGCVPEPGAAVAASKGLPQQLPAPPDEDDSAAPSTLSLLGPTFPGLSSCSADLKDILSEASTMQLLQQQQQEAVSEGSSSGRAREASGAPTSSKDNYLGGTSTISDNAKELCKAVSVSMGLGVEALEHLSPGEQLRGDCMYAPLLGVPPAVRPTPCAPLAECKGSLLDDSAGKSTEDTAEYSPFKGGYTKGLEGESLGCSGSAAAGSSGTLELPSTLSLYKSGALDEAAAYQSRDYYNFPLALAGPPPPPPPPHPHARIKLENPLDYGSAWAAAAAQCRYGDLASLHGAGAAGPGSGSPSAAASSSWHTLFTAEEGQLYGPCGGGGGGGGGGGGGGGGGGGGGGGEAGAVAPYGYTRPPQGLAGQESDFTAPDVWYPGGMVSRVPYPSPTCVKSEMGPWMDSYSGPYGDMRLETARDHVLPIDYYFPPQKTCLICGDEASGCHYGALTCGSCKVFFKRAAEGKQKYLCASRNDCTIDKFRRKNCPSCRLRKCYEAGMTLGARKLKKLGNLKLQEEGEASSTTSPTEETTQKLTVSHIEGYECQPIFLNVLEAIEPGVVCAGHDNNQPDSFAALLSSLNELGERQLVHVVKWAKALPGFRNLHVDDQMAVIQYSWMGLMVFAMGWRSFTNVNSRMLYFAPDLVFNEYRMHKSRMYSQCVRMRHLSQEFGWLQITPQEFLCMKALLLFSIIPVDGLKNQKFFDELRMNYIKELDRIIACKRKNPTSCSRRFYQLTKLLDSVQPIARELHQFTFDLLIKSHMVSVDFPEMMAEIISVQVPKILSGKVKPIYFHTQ
Kind of test: Reporter assay of an androgen receptor responsive sequence (luciferase, transiently transfected HEK293 cells). Type of test: cell-based. The conditions noted are these: 24 hours incubation, relative to activity of 100 nM DHT, read-out: AR transcriptive activity (pEC50) (converted). An outline of the steps: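 HEK293 cells transiently transfected for 3 h with ARE-firefly luciferase, full-length human AR and TK-Renilla plasmids, then exposed to compound for 24 h at 37 °C in 5% charcoal-treated FBS/DMEM. Dual-Glo luminescence read; pEC50 from 4-parameter fit relative to 100 nM DHT.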

Test [1] has as its target T2, androgen receptor (AR-LBD) (Rattus norvegicus, UniProt P15207).
T2 construct: 5 μL of 2×AR-LBD/Fluoromone AL Red Complex contained in the kit; purchased Invitrogen
T2 sequence (P15207 651-882 limits assumed): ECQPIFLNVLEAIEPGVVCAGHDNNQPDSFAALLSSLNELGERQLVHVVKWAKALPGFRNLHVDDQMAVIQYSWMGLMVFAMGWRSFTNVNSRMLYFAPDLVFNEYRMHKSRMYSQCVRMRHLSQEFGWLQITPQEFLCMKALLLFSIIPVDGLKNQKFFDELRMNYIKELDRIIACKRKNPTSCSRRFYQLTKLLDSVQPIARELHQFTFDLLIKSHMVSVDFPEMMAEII
Kind of test: Evaluation of androgen receptor affinity (PolarScreen Androgen Receptor Competitor Assay Kit, Red; fluorescence polarization). The following applies: 22° C. for 5 hours, relative to binding rate of 1 μM DHT, read-out: AR affinity (pEC50) (converted). An outline of the steps: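 Fluorescence polarization read-out after 5 h at 22° C of compound with a red-fluorophore-labelled AR-LBD complex. Displacement is scaled against 1 μM DHT, and the log reciprocal of the concentration reaching half that effect gives pEC50 via four-parameter curve fitting.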

SMILES strings stand for the structures.

From patent US10689354B2, “Aminoazole derivative” (Teijin Pharma Limited, priority 2015, dated 2020) come the findings set out here.

For `Cc1sc(N(Cc2cccc(OC(F)(F)F)c2)c2ccc(C#N)cc2)nc1C(=O)NS(C)(=O)=O` [Compound 343, 2-[4-cyano-N-[[3-(trifluoromethoxy)phenyl]methyl]anilino]-5-methyl-N-methylsulfonyl-thiazole-4-carboxamide], the EC50 on human androgen receptor is 100 nM; in test [1], 31.6 nM.

Consider `Cc1sc(N(CC2CCCCC2)c2ccc(C#N)cc2)nc1C(=O)NS(C)(=O)=O` [Compound 344, 2-[4-cyano-N-(cyclohexylmethyl)anilino]-5-methyl-N-methylsulfonyl-thiazole-4-carboxamide], for which the EC50 at human androgen receptor is 794 nM; in test [1], 39.8 nM.

For the compound `Cc1sc(N(CC2CCN(C)CC2)c2ccc(C#N)cc2)nc1C(=O)NS(C)(=O)=O` [Compound 351, 2-[4-cyano-N-[(1-methyl-4-piperidyl)methyl]anilino]-5-methyl-N-methylsulfonyl-thiazole-4-carboxamide], the EC50 at human androgen receptor is > 10000 nM; in test [1] it was > 2000 nM.

As to `Cc1sc(N(CCCOCc2ccccc2)c2ccc(C#N)cc2)nc1C(=O)NS(C)(=O)=O` [Compound 359, 2-[N-(3-benzyloxypropyl)-4-cyano-anilino]-5-methyl-N-methylsulfonyl-thiazole-4-carboxamide], the figures for the EC50 (on human androgen receptor; in test [1]) were > 10000 nM and 126 nM, respectively.

As to `Cc1sc(N(Cc2ccc3nonc3c2)c2ccc(C#N)cc2)nc1C(=O)NS(C)(=O)=O` [Compound 361, 2-[N-(2,1,3-benzoxadiazol-5-ylmethyl)-4-cyano-anilino]-5-methyl-N-methylsulfonyl-thiazole-4-carboxamide], the EC50 on human androgen receptor was 631 nM; in test [1], 39.8 nM.

Consider `CCS(=O)(=O)NC(=O)c1nc(N(Cc2ccccc2)c2ccc(C#N)cc2)sc1C` [Compound 362, 2-(N-benzyl-4-cyano-anilino)-N-ethylsulfonyl-5-methyl-thiazole-4-carboxamide], for which the EC50 was 251 nM on human androgen receptor and 63.1 nM in test [1].

For `Cc1sc(N(Cc2ccccc2)c2ccc(C#N)cc2)nc1C(=O)NS(=O)(=O)C1CC1` [Compound 363, 2-(N-benzyl-4-cyano-anilino)-N-cyclopropylsulfonyl-5-methyl-thiazole-4-carboxamide], the results for the EC50 (on human androgen receptor; in test [1]) were 1260 nM and 63.1 nM, respectively.

As to `Cc1sc(N(Cc2ccccc2)c2ccc(C#N)cc2)nc1C(=O)NS(=O)(=O)C(F)(F)F` [Compound 364, 2-(N-benzyl-4-cyano-anilino)-5-methyl-N-(trifluoromethylsulfonyl)thiazole-4-carboxamide], the EC50 was > 10000 nM at human androgen receptor and 31.6 nM in test [1].

For the compound `Cc1sc(N(CC2CCCCCC2)c2ccc(C#N)cc2)nc1C(=O)NS(C)(=O)=O` [Compound 365, 2-[4-cyano-N-(cycloheptylmethyl)anilino]-5-methyl-N-methylsulfonyl-thiazole-4-carboxamide], the EC50 on human androgen receptor was 631 nM; in test [1], 25.1 nM.

For the compound `Cc1sc(N(CC2=CCCCC2)c2ccc(C#N)cc2)nc1C(=O)NS(C)(=O)=O` [Compound 366, 2-[4-cyano-N-(cyclohexen-1-ylmethyl)anilino]-5-methyl-N-methylsulfonyl-thiazole-4-carboxamide], the results for the EC50 (on human androgen receptor; in test [1]) were 50.1 nM and 39.8 nM, respectively.

For `Cc1sc(N(CCOCc2ccccc2)c2ccc(C#N)cc2)nc1C(=O)NS(C)(=O)=O` [Compound 367, 2-[N-(2-benzyloxyethyl)-4-cyano-anilino]-5-methyl-N-methylsulfonyl-thiazole-4-carboxamide], the EC50 at human androgen receptor is > 10000 nM; in test [1], 158 nM.

Regarding `Cc1sc(N(CCCOc2ccccc2)c2ccc(C#N)cc2)nc1C(=O)NS(C)(=O)=O` [Compound 368, 2-[4-cyano-N-(3-phenoxypropyl)anilino]-5-methyl-N-methylsulfonyl-thiazole-4-carboxamide], the EC50 on human androgen receptor was > 10000 nM; in test [1] it was 100 nM.

For `Cc1sc(N(CCCCOc2ccccc2)c2ccc(C#N)cc2)nc1C(=O)NS(C)(=O)=O` [Compound 369, 2-[4-cyano-N-(4-phenoxybutyl)anilino]-5-methyl-N-methylsulfonyl-thiazole-4-carboxamide], the figures for the EC50 (on human androgen receptor; in test [1]) were > 10000 nM and 79.4 nM, respectively.

With `Cc1sc(N(CCOC2CCCCC2)c2ccc(C#N)cc2)nc1C(=O)NS(C)(=O)=O` [Compound 370, 2-[4-cyano-N-[2-(cyclohexoxy)ethyl]anilino]-5-methyl-N-methylsulfonyl-thiazole-4-carboxamide], the EC50 at human androgen receptor was 2510 nM; in test [1], 79.4 nM.

Turning to `Cc1sc(N(Cc2ccccc2)c2ccc(C#N)cc2)nc1C(=O)NS(=O)(=O)CC(C)C` [Compound 371, 2-(N-benzyl-4-cyano-anilino)-N-isobutylsulfonyl-5-methyl-thiazole-4-carboxamide], the EC50 at human androgen receptor was > 10000 nM; in test [1], 200 nM.

In the case of `Cc1sc(N(Cc2ccccc2)c2ccc(C#N)cc2)nc1C(=O)NS(=O)(=O)CC(F)(F)F` [Compound 372, 2-(N-benzyl-4-cyano-anilino)-5-methyl-N-(2,2,2-trifluoroethylsulfonyl)thiazole-4-carboxamide], the EC50 on human androgen receptor was 1260 nM; in test [1], 31.6 nM.

For `Cc1sc(N(Cc2ccccc2)c2ccc(C#N)cc2)nc1C(=O)NS(=O)(=O)Cc1ccccc1` [Compound 374, 2-(N-benzyl-4-cyano-anilino)-N-benzylsulfonyl-5-methyl-thiazole-4-carboxamide], the EC50 was 501 nM at human androgen receptor and 39.8 nM in test [1].

For `COc1ccccc1CCN(c1ccc(C#N)cc1)c1nc(C(=O)NS(C)(=O)=O)c(C)s1` [Compound 376, 2-[4-cyano-N-[2-(2-methoxyphenyl)ethyl]anilino]-5-methyl-N-methylsulfonyl-thiazole-4-carboxamide], the values for the EC50 (on human androgen receptor; in test [1]) were 6310 nM and 100 nM, respectively.

Consider `Cc1sc(N(Cc2cccc3ccsc23)c2ccc(C#N)cc2)nc1C(=O)NS(C)(=O)=O` [Compound 378, 2-[N-(benzothiophen-7-ylmethyl)-4-cyano-anilino]-5-methyl-N-methylsulfonyl-thiazole-4-carboxamide], for which the EC50 on human androgen receptor was 50.1 nM; in test [1], 25.1 nM.

For `Cc1sc(N(CCc2ccccc2O)c2ccc(C#N)cc2)nc1C(=O)NS(C)(=O)=O` [Compound 379, 2-[4-cyano-N-[2-(2-hydroxyphenyl)ethyl]anilino]-5-methyl-N-methylsulfonyl-thiazole-4-carboxamide], the values for the EC50 (on human androgen receptor; in test [1]) were 251 nM and 25.1 nM, respectively.

On to `Cc1sc(N(Cc2ccccc2)c2ccc(C#N)cc2)nc1C(=O)NS(=O)(=O)CS(C)(=O)=O` [Compound 382, 2-(N-benzyl-4-cyano-anilino)-5-methyl-N-(methylsulfonylmethylsulfonyl)thiazole-4-carboxamide], for which the figures for the EC50 (on human androgen receptor; in test [1]) were > 10000 nM and 79.4 nM, respectively.

With `CCOC(=O)CS(=O)(=O)NC(=O)c1nc(N(Cc2ccccc2)c2ccc(C#N)cc2)sc1C` [Compound 384, ethyl 2-[[2-(N-benzyl-4-cyano-anilino)-5-methyl-thiazole-4-carbonyl]sulfamoyl]acetate], the results for the EC50 (on human androgen receptor; in test [1]) were 251 nM and 39.8 nM, respectively.

As for `Cc1sc(N(Cc2ccccc2)c2ccc(C#N)cc2)nc1C(=O)NS(=O)(=O)Cc1cccc(Cl)c1` [Compound 386, 2-(N-benzyl-4-cyano-anilino)-N-[(3-chlorophenyl)methylsulfonyl]-5-methyl-thiazole-4-carboxamide], the EC50 at human androgen receptor is > 10000 nM; in test [1] it was 126 nM.
